From US20140296263A1, “SUBSTITUTED XANTHINE DERIVATIVES” (CONCERT PHARMACEUTICALS, INC., priority 2011, published 2014)

Legend:
[1] = tested on: TNF-α; assay: TNF-α inhibition assay in LPS-stimulated whole blood; format: cell-based, human; conditions: LPS-induced TNF-α in whole blood, potency relative to compound 401, FIG. 1
Description: Whole blood (sodium heparin vacutainer) was obtained from two normal, healthy donors from Research Blood Components, Boston, Mass. For each donor sample, two duplicate assays were performed according to the following procedure. Blood was diluted 1:1 with Opti-MEM® Reduced Serum Medium (Invitrogen) and 100 μl of diluted blood was added to wells of a 96-well plate. The test compounds were serially diluted in Opti-MEM® to create a dose-response. The resulting diluted solutions (50 μl) were then added to the wells containing diluted blood and the mixture was incubated for 15 minutes at 37° C., 5% CO2. Lipopolysaccharide (LPS) strain 113:H10 (obtained from Associates of Cape Cod #E0005) was prepared at a 4× concentration and 50 μl of 4 ng/ml solution was added to the blood to achieve a final concentration of 1 ng/ml. Control wells contained diluted blood and 100 μl Opti-MEM® (negative control) or 50 μl Opti-MEM® plus 50 μl LPS (positive control). Plates were then incubated for 24 h at 37° C., 5% CO2. After incubation, diluted plasma was harvested by centrifugation at 3000 RPM for 2 minutes to pellet the blood cells. Supernatant (diluted plasma) was then transferred into a clean 96-well plate. The diluted plasma was further diluted 1:10 with ELISA reagent diluents and the TNF-α level for each compound was measured following manufacturer's instructions for the DuoSet® ELISAs (R & D Systems). The IC50 value for the compound was calculated using commercially available statistics software and the average IC50 values from the two donors was calculated. The potency of the compound relative to the potency of compound 401 was obtained by dividing the IC50 value of compound 401 by the IC50 value of the compound.

[2] = tested on: reactive oxygen species (ROS); assay: ROS inhibition assay in whole blood (neutrophils, DHR-123 flow cytometry); format: cell-based, human; conditions: fMLP or PMA stimulated whole blood, potency relative to compound 401, FIG. 1
Description: Whole blood (sodium heparin vacutainer) was obtained from two normal, healthy donors from Research Blood Components, Boston, Mass. For each donor sample, two duplicate assays were performed according to the following procedure. Whole blood (100 μl) was added to wells of a 96 deep-well plate. Compounds were serially diluted in Hanks Balanced Salt Solution (HBSS) to achieve a desired dose-response. The resulting diluted solutions (100 μl) were added to the whole blood samples, mixed gently, and incubated for 30 minutes at 37° C., 5% CO2. The blood was then stimulated by addition of Formyl-Methionyl-Leucyl-Phenylalanine (fMLP) (1 μM final concentration) or phorbol myristate acetate (PMA) (10 ng/ml final concentration) and was further incubated for 20 minutes at 37° C., 5% CO2. Dihydrorhodamine 123 (DHR-123) reagent (Invitrogen), a cell-permeable probe that becomes highly fluorescent when oxidized, was then added to the blood at a final concentration of 0.5 μM and incubated for another 20 minutes at 37° C., 5% CO2. The red blood cells were then lysed in 1 ml ammonium chloride-potassium (ACK) lysis buffer (Invitrogen) for 10 minutes at room temperature. The remaining leukocytes (including the neutrophils) were washed once in HBSS and resuspended in HBSS/0.5% paraformaldehyde. To quantify intracellular ROS production, the fluorescence of the oxidized form of DHR-123, which is a fluorescent compound, was measured. The level of oxidized DHR-123 in neutrophils was assessed for each sample by measuring cell fluorescence on a flow cytometer. The IC50 value was calculated using commercially available statistics software and the average IC50 values from the two donors was calculated. The potency of the compound relative to the potency of compound 401 was obtained by dividing the IC50 value of compound 401 by the IC50 value of the compound.

[3] = tested on: MCP-1; assay: MCP-1 assay (blood donors); format: cell-based, human; conditions: for IC50: Homo sapiens
From the text: MCP-1 is a known pro-inflammatory cytokine that plays important roles in various diseases.

[4] = tested on: IFN-gamma; assay: IFN-gamma assay (blood donors); format: cell-based, human; conditions: for IC50: Homo sapiens
[5] = pentoxifylline and its metabolites; cited from earlier work

Row | IC50 ([3]; Donor 1) [µM] | IC50 ([3]; Donor 2) [µM] | IC50 ([4]; Donor I) [µM] | IC50 ([4]; Donor II) [µM] | MCP-1 IC50 values compared with Compounds 400 and 401 ([3]; both donors of Table 2) | IFN-gamma IC50 values compared with Compounds 400 and 401 ([4]; one donor) | IFN-gamma IC50 values compared with Compounds 400 and 401 ([4]; second donor) | SMILES | activity (relative potency) in the TNF-α inhibition assay [1] | activity (relative potency) in the ROS inhibition assay [2] | time to peak plasma levels [5] | activity (relative potency) in the TNF-α inhibition assay ([1]; listed as M-2) | activity (relative potency) in the ROS inhibition assay ([2]; listed as M-2)
1 | 80 | 80 | 78 | 63 | – | – | – | CC(=O)CCCCn1c(=O)c2c(ncn2C)n(C)c1=O [Compound 400, 1-(5-oxohexyl)-3,7-dimethylxanthine] | comparable activity | comparable activity | within one hour | – | –
2 | – | – | – | – | – | – | – | Cn1cnc2c1c(=O)n(CCCCC(=O)O)c(=O)n2C [Compound M-4] | significantly lower activity | significantly lower activity | – | – | –
3 | – | – | – | – | – | – | – | Cn1cnc2c1c(=O)n(CCCC(=O)O)c(=O)n2C [Compound M-5] | significantly lower activity | significantly lower activity | – | – | –
4 | 194 | 125 | 72 | 119 | slightly higher | slightly higher | very similar | Cn1cnc2c1c(=O)n(CCCCC(O)CO)c(=O)n2C (stereo not drawn) [Compound 308, 1-(5,6-Dihydroxyhexyl)-3,7-dimethyl-1H-purine-2,6(3H,7H)-dione] | comparable activity | comparable activity | – | active | active
5 | – | – | – | – | – | – | – | CC(O)C(O)CCCn1c(=O)c2c(ncn2C)n(C)c1=O (stereo not drawn) [Compound M-3] | significantly lower activity | significantly lower activity | – | – | –
